Test results published in publication PMC10907753 (Communications Biology, 2024).
Several values for one entry are separate records, joined by “and”; a condition that tells them apart may be missing. Equal values may be shown once. Read-outs that look alike come from different tables or passages of the source.

Experiments:
[1] = target: T1, Xcc NAMPT (Xanthomonas campestris pv. campestris, UniProt A0A0H2X5R2); assay: NAMPT enzyme activity, fluorometric NMN assay (kinetic constants); type: biochemical
Protocol: (§1) To ensure the reliability of the results, all assays were performed multiple times. NAMPT enzyme activity was assessed using a chemical approach that converted NMN into a fluorescent derivative, in accordance with established protocols[15],[30].
(§2) The enzymatic reactions were carried out for 15 min at 37 °C, and the quantification of NMN was achieved using the fluorescence method. Briefly, the sample containing NMN (25 μl) was mixed with 10 μl of 20% acetophenone (200 μl acetophenone dissolved in 800 μl DMSO) and 10 μl of 2 M KOH. The mixture was then incubated on ice for 10 minutes before adding 45 μl of 100% formic acid. The resulting mixture was incubated at 37 °C for 15 min. Samples (40 μl) were then transferred to a 384-well plate, and fluorescence intensity was measured using the Victor Nivo Multimode plate reader (Perkin Elmer), with excitation and emission wavelengths set at 355/40 and 435/20 nm, respectively.
Correspondingly, the additions of 20% acetophenone, 2 M KOH, and 100% formic acid were adjusted proportionally. The resulting final samples (120 μl) were transferred to 96-well plates, and the fluorescence values were measured following the same procedure as described earlier.
(§3) The kinetic data was analyzed using Graphpad Prism 8. To determine the hill coefficients, substrate-velocity curves were analyzed by nonlinear regression with an allosteric sigmoidal model using the equation v = Vmax S^h/(Km^h + S^h).

[2] = target: T1, Xcc NAMPT; assay: Determination of IC50 value for FK866; type: biochemical
[3] = target: T1, Xcc NAMPT; assay: biochemical
[4] = system: Xcc ΔNamptΔNads (XC_0719 and XC_1067 double deletion mutant); type: cell-based, Xanthomonas campestris pv. campestris; conditions: 0.1 mM supplement, 28 °C
Protocol: The bacterium Xcc was grown in NYG medium at 28 °C and shaked at 200 rpm for 16–18 h. Once the cells had grown to a point where OD600 reached 1.0, they were harvested via centrifugation and washed twice with MMX medium. Following this, a volume of 0.1 ml of the cell suspension was added to 5 ml of fresh MMX medium. […] The culture was grown at 28 °C and the OD600 values were measured every 12 h. The experiments were repeated at least three times to ensure consistency.

[5] = target: T1, Xcc NAMPT; conditions: read-out: Kd2; ITC, 25 mM NAM into 30 μM NAMPT, sequential binding sites model, second site
[6] = target: R373A+R180A mutant pair of Xcc NAMPT (Xanthomonas campestris pv. campestris, UniProt A0A0H2X5R2, R180A/R373A); assay: NAMPT enzyme activity, fluorometric NMN assay (kinetic constants); type: biochemical
Protocol: as §2
. Correspondingly, the additions of 20% acetophenone, 2 M KOH, and 100% formic acid were adjusted proportionally. The resulting final samples (120 μl) were transferred to 96-well plates, and the fluorescence values were measured following the same procedure as described earlier.
as §3
Fig. S9 Substrate-velocity curve for the R373A+R180A mutant pair of Xcc
of 0.3 nM mutant pair was used.
μM. The error bars depicted on the plot indicate the standard deviation of
measurements taken from three replicates.

[7] = target: Xcc NAMPT H175F-I224F-V291F-I332F quadruple mutant (Xanthomonas campestris pv. campestris, UniProt A0A0H2X5R2, H175F/I224F/I332F/V291F); type: biochemical; conditions: for Km / kcat: 3.5 nM quadruple mutant
Protocol: as §1, §2
The kinetic data was analyzed using Graphpad Prism 8. To determine the hill coefficients, substrate-velocity curves were analyzed by nonlinear regression with an allosteric sigmoidal model using the equation v = Vmax S^h/(Km^h + S^h). […]
mutant. c-d Michaelis–Menten plots for the tunnel-blocked quadruple mutant of Xcc […]
To determine the kinetic parameters of quadruple mutant, a concentration of 3.5 nM mutant was used. […]

[8] = target: T2, human NAMPT (Homo sapiens, UniProt P43490); conditions: human NAMPT for NAM; cited from earlier work
[9] = target: Xcc NAMPT with ATP pretreatment (Xanthomonas campestris pv. campestris, UniProt A0A0H2X5R2); conditions: ITC after ATP treatment, sequential binding
Protocol: Proteins pretreated with ATP were prepared by incubating 1 μM protein and 1 mM ATP at 25 °C for 30 min. […] The ATP was subsequently removed by gel filtration using the Superdex 200 Increase 10/300 GL column. The final concentrations of proteins were measured by Nanodrop.
figure presented is a representative sample from three separate experiments. A
sequential binding sites model was used to fit the binding curves, yielding the
dissociation constant (Kd) and the stoichiometry (N) of the binding reaction.
(1 picture or pasted object on this page, not shown here)

[10] = target: T2, human NAMPT; assay: NAMPT enzyme activity, fluorometric NMN assay (kinetic constants); type: biochemical; conditions: 30 nM human NAMPT, PRPP 3 to 50 μM
Protocol: To determine the kinetic parameters of human NAMPT, a concentration of 30 nM His-tagged human NAMPT was used. […] The remaining conditions were kept the same as those employed in the Xcc NAMPT reaction system.
as §2, §3

[11] = target: T2, human NAMPT; conditions: NAMPT activators; cited from earlier work
[12] = substrate of Xcc NAMPT, 37 °C, Michaelis-Menten fit
[13] = FK866 0.4 nM, E=0.4 nM, replicates
[14] = 0.3 nM mutant pair, NAM 0.1 to 4 μM

T2 sequence (P43490 whole entry): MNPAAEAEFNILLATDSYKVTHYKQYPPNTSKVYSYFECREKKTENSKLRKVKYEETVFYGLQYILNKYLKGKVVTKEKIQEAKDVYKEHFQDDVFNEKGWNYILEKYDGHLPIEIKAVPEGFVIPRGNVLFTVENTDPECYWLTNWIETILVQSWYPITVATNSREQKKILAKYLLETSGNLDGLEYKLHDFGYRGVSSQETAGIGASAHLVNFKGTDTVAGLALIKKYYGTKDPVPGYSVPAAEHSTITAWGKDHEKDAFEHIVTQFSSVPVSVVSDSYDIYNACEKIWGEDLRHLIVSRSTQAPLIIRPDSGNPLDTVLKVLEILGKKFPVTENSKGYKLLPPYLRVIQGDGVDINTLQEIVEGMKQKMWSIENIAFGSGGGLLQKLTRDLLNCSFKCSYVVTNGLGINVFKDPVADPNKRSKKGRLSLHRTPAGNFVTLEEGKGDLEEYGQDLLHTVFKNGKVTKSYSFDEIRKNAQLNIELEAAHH

Nc1ncnc2c1ncn2[C@@H]1O[C@H](COP(=O)(O)OP(=O)(O)OP(=O)(O)O)[C@@H](O)[C@H]1O [ATP]
Km [1]: 560 ± 60 µM
kcat [1, 12]: 4.40 ± 0.16 s⁻¹

O=C(/C=C/c1cccnc1)NCCCCC1CCN(C(=O)c2ccccc2)CC1 [FK866]
IC50 [2]: 0.23 nM
Activity % ([2]; FK866 0.02 nM, E=0.4 nM, replicates): 99.2204% and 100.986% and 94.6063% and 98.6899%
Activity % ([2]; FK866 0.04 nM, E=0.4 nM, replicates): 101.785% and 102.935% and 85.505% and 97.238%
Activity % ([2]; FK866 0.1 nM, E=0.4 nM, replicates): 78.2474% and 70.3189% and 72.1819% and 76.3149%
Activity % ([2]; FK866 0.2 nM, E=0.4 nM, replicates): 62.8959% and 69.0568% and 55.7537% and 65.4354%
Activity % [2, 13]: 17.7119% and 13.8804% and 14.6162%
activity at 0.0004 µM [2, 13]: 14.2%
Activity % ([2]; FK866 1 nM, E=0.4 nM, replicates): 4.02% and 4.725% and 5.923% and 4.615%
Activity % ([2]; FK866 2 nM, E=0.4 nM, replicates): 1.856% and 4.769% and 2.139% and 3.338%
Kd [3]: 0.0822 µM

O=C(O)c1cccnc1 [NA, nicotinic acid]
growth of ΔNamptΔNads in MMX with supplement [4]: did not grow

NC(=O)c1ccc[n+]([C@@H]2O[C@H](COP(=O)([O-])OP(=O)(O)OC[C@H]3O[C@@H](n4cnc5c(N)ncnc54)[C@H](O)[C@@H]3O)[C@@H](O)[C@H]2O)c1 [NAD+, nicotinamide adenine dinucleotide]
growth of ΔNamptΔNads in MMX with supplement [4]: able to grow

NC(=O)c1cccnc1 [NAM, nicotinamide]
hill coefficient ([1]; NAM substrate-velocity curve, allosteric sigmoidal model): ~ 1.98
Kd [3]: 1410 µM
Kd [5]: 21 mM
Km [6, 14]: 80 ± 10 nM
kcat [6, 14]: 0.188 ± 0.005 s⁻¹
hill coefficient (H) ([6]; mutant pair, NAM): 1.64 ± 0.32 and 1.64
growth of ΔNamptΔNads in MMX with supplement [4]: did not grow
Km [7]: 7.33 ± 0.66 µM
kcat [7]: 0.55 ± 0.02 s⁻¹
hill coefficient ([7]; NAM, quadruple mutant): 1.00
Km [8]: 5 ± 2 nM
Kd ([9]; read-out: Kd (first binding site)): 0.33 mM
Kd ([9]; read-out: Kd (second binding site)): 2.99 mM

NC(=O)c1ccc[n+]([C@@H]2O[C@H](CO)[C@@H](O)[C@H]2O)c1 [NmR, nicotinamide riboside]
growth of ΔNamptΔNads in MMX with supplement [4]: did not grow

O=P(O)(O)OC[C@H]1O[C@H](OP(=O)(O)OP(=O)(O)O)[C@H](O)[C@@H]1O [PRPP]
kcat [10]: 0.045 ± 0.001 s⁻¹
Km ([10]; 2.5 mM ATP, 10 μM NAM): 5.41 ± 0.58 µM
Km [1, 12]: 24.4 ± 6.26 µM
kcat [1, 12]: 6.99 ± 0.56 s⁻¹
kcat [7]: 0.44 ± 0.01 s⁻¹
Km ([7]; read-out: Km): 9.56 ± 1.14 µM
fold decrease in Km ([7]; quadruple mutant vs wild-type): 2.55 fold
fold decrease in catalytic efficiency ([7]; quadruple mutant vs wild-type): about 5.80 fold
fold decrease in kcat ([7]; quadruple mutant vs wild-type): 15.89 fold

O=C(NCc1ccncc1)Nc1ccc(S(=O)(=O)N2CC3CCC(C2)O3)cc1 [SBI-797812]
effect on the enzymatic activity of human NAMPT [11]: almost double
